One series can be described thus: MTT cytotoxicity assay. It counts as cell-based, murine. The following applies: mouse, Neuro-2a neuroblastoma cells; Neuro-2a cells, MTT. How it is done:
(§1) The murine neuroblastoma cell line Neuro-2a was purchased from ATCC.
(§2) Neuro-2a cells were cultured in DMEM medium containing 10% fetal bovine serum (Biolot, St. Petersburg, Russia) and 1% penicillin/streptomycin (Biolot, St. Petersburg, Russia). Cells were incubated at 37 °C in a humidified atmosphere containing 5% (v/v) CO2 [71].
(§3) The in vitro cytotoxicity of the individual substances was evaluated using an MTT (3-(4,5-dimethylthiazol-2-yl)-2,5-diphenyltetrazolium bromide) assay, which was performed according to the manufacturer’s instructions (Sigma-Aldrich, USA). Absorbance of the converted formazan was measured using a Multiskan FC plate photometer (Thermo Scientific, Waltham, MA, USA) at λ = 570 nm. The results were presented as percent of control data, and concentration of cell viability inhibition on 50% (IC50) was calculated.
In general terms: Tetrazolium assays rely on reduction of a dye to a coloured formazan, in cell work by metabolically active cells.

Series [1] concerns neuroblastoma Neuro-2a cells. Put plainly: MTT cytotoxicity assay. It counts as cell-based, murine. To be noted: up to 100 µM. As to the method:
as §1, §2, §3

Series [2] is described as follows: DPPH radical scavenger assay. The following applies: 30 min; for DPPH Radical Scavenging 100 µM % of MeOH: compound 100 µM, absorbance 520 nm. As to the method:
The DPPH radical scavenging activities of the compounds were tested as described.
The compounds were dissolved in MeOH, and the solutions (120 µL) were dispensed into wells of a 96-well microplate. In all, 30 µL of the DPPH (Sigma-Aldrich, Steinheim, Germany) solution in MeOH (7.5 × 10^−3 M) was added to each well. The concentrations of the test compounds in the mixtures were 10 and 100 µM. The mixtures were shaken and left to stand for 30 min, and the absorbance of the resulting solutions was measured at 520 nm with a microplate reader MultiscanFC (ThermoScientific, Waltham, MA, USA). The concentration scavenging 50% of the DPPH radical (EC50) was calculated for each investigated compound.
Background: Loss of DPPH colour is used to gauge radical scavenging.

For series [3], the system named is Neuro-2a cells treated with 6-OHDA. Briefly: 6-OHDA-induced PD cell model, cell viability (MTT). It is filed as cell-based, murine. To be noted: compounds 1-5; 1 and/or 10 µM; 6-OHDA 50 µM; 24 h. How it is done:
as §1, §2
(§4) The neuroblastoma Neuro-2a line cells (1 × 10^4 cells/well) were treated with the test compounds at concentrations of 1 and/or 10 µM for 1 h, and then the neurotoxins were added to the neuroblastoma cell suspensions. Rotenone (Sigma-Aldrich, USA) was used at the concentration of 10 µM. Paraquat (Sigma-Aldrich, USA) was used at 500 µM. 6-Hydroxydopamine (Sigma-Aldrich, USA) was used at 50 µM. Cells incubated without neurotoxins and the test compounds and cells incubated with neurotoxins only were used as positive and negative controls, respectively. After 24 h of incubation, the cell viabilities were measured using the MTT method. The results are presented as the percent of positive control data.

Series [4] deals with PQ-treated Neuro-2a cells. Briefly: Paraquat-induced PD cell model, cell viability (MTT). It counts as cell-based, murine. The following applies: compounds 1-5; 1 and/or 10 µM; paraquat 500 µM; 24 h. How it is done: as §1, §2, §4
In series [5] the test system is rotenone-treated Neuro-2a cells. Briefly: Rotenone-induced PD cell model, cell viability (MTT). The following applies: compounds 1-5; 1 and/or 10 µM; rotenone 10 µM; 24 h. It counts as cell-based, murine. As to the method:
as §1, §2, §4

Series [6] has as its system PQ-treated Neuro-2a cells. Put plainly: ROS level in PQ-treated cells (H2DCFDA). It counts as cell-based, murine. To be noted: compounds 1-5; compound 10 µM 1 h, PQ 500 µM 1 h. How it is done:
as §1, §2
[…] Then, 6-OHDA/PQ/rotenone were added to cell suspension to resulting concentration of 50 µM, 500 µM and 10 µM respectively for incubation during 1 h. Cells incubated without neurotoxins and compounds and with neurotoxins alone were used as positive and negative controls, respectively. The 20 µL of 2,7-dichlorodihydrofluorescein diacetate solution (H2DCFDA, Molecular Probes, Eugene, OR, USA) was added to each well (10 µM, final concentration) and the plate was incubated for an additional 10 min at 37 °C. The intensity of dichlorofluorescein fluorescence was measured with PHERAstar FS plate reader (BMG Labtech, Ortenberg, Germany) at λex = 485 nm and λem = 518 nm. The data were processed by MARS Data Analysis v. 3.01R2 (BMG Labtech, Germany). The results were presented as the percent of positive control data.

For series [7], the system named is rotenone-treated Neuro-2a cells. Put plainly: ROS level in rotenone-treated cells (H2DCFDA). The following applies: compounds 1-5; compound 10 µM 1 h, rotenone 10 µM 1 h. It counts as cell-based, murine. As to the method:
as §1, §2
(§5) The cells (1 × 10^4 cells/well of a 96-well plate) were incubated with compound solutions (10 µM) during 1 h. Then, 6-OHDA/PQ/rotenone were added to cell suspension to resulting concentration of 50 µM, 500 µM and 10 µM respectively for incubation during 1 h. Cells incubated without neurotoxins and compounds and with neurotoxins alone were used as positive and negative controls, respectively. The 20 µL of 2,7-dichlorodihydrofluorescein diacetate solution (H2DCFDA, Molecular Probes, Eugene, OR, USA) was added to each well (10 µM, final concentration) and the plate was incubated for an additional 10 min at 37 °C. The intensity of dichlorofluorescein fluorescence was measured with PHERAstar FS plate reader (BMG Labtech, Ortenberg, Germany) at λex = 485 nm and λem = 518 nm. The data were processed by MARS Data Analysis v. 3.01R2 (BMG Labtech, Germany). The results were presented as the percent of positive control data.

The conditions of series [8]: cited from earlier work.
The subject of series [9] is methicillin-resistant Staphylococcus aureus (MRSA), S. aureus, Enterococcus faecalis and Acinetobacter baumannii, E. coli and Klebsiella pneumonia. Set-up: method as in PMID 30946944. The following applies: cited from earlier work.
For series [10], the system named is K562, BEL-7042, SGC-7901, A-549 and Hela cell lines. Set-up: method as in PMID 30946944. To be noted: cited from earlier work.
The subject of series [11] is murine lymphoma L5178Y cell line. Details: method as in doi:10.1016/j.phytol.2015.06.003. To be noted: cited from earlier work.
For series [12], the system named is 6-OHDA-treated Neuro-2a cells. Put plainly: ROS level in 6-OHDA-treated cells (H2DCFDA). To be noted: compounds 1-5; compound 10 µM 1 h, 6-OHDA 50 µM 1 h. It is filed as cell-based, murine. How it is done:
as §1, §2, §5

The next series deals with HeLa. Set-up: method as in PMID 24871461. To be noted: cited from earlier work.
The subject of series [13] is a number of other cell lines. Details: method as in PMID 17994702, PMID 30658264. The following applies: cited from earlier work.
The subject of series [14] is several microbial pathogens. Set-up: method as in PMID 17994702, doi:10.1016/j.phytol.2015.04.009. The following applies: cited from earlier work.

Like-named read-outs stand apart in the source and are kept apart here. Some results are limits rather than exact numbers.

The compound `Cc1cc(O)c(C)c(=O)o1` [Compound 4, 4-hydroxy-3,6-dimethyl-2-pyrone] came in with an IC50 in “MTT cytotoxicity assay” of over 100 µM. The “cytotoxicity against Neuro-2a cells” value in series [1] is given as “not cytotoxic”. For the same compound, the “DPPH Radical Scavenging 100 µM % of MeOH” value in series [2] is given as 87.2 ± 1.4 % of MeOH. Besides, in [3], the “effect on viability of Neuro-2a cells incubated with 6-OHDA” value is “did not demonstrate any protective effects”. Further, the “effect on viability of PQ-treated cells” value in series [4] is reported as “had no effect on viability”. For the same compound, the “effect on viability of rotenone-treated cells” value in [5] is given as “did not affect”. Further, the “influence on ROS level in PQ-treated cells” value in series [6] is “had almost no effect”. In addition, the “influence on ROS level in rotenone-treated cells” value in series [7] was “significantly reduced the ROS level”. Further, the EC50 in series [8] (reported earlier, read-out: DPPH Radical Scavenging EC50) is 500 µM. For the same compound, the “DPPH radical scavenging activity” value in series [8] (via donation of a hydrogen atom and adduct forming) is “shows DPPH radical scavenging activity”. The antibacterial activities entry in series [9] is given as “ineffective”. Also, the cytotoxic activities entry in [10] was “ineffective”. Besides, the cytotoxicity entry in series [11] is “weak cytotoxicity”.

In turn, `C[C@H](O)CC1=C[C@H](O)[C@@H](C)OC1=O` [Compound 5, Dihydroaspyrone] registered an IC50 in the series “MTT cytotoxicity assay” of over 100 µM. The “cytotoxicity against Neuro-2a cells” value in [1] is on record as “not cytotoxic”. Besides, in series [2] (MeOH, read-out: DPPH Radical Scavenging EC50), the concentration giving a half-maximal response (EC50) was over 100 µM. Moreover, the “DPPH Radical Scavenging 100 µM % of MeOH” value in [2] was 95.2 ± 1.0 % of MeOH. Besides, in series [3], the “effect on viability of Neuro-2a cells incubated with 6-OHDA” value was “did not demonstrate any protective effects”. For the same compound, the “effect on viability of PQ-treated cells” value in [4] is listed as “statistically increased viability of PQ-treated cells only”. For the same compound, in [5], the “effect on viability of rotenone-treated cells” value is listed as “did not affect”. Also, in series [12], the “influence on ROS level in 6-OHDA-treated cells” value was “reduced ROS level”. Also, the “influence on ROS level in PQ-treated cells” value in series [6] is “significantly reduced the ROS level”. Moreover, in series [7], the “influence on ROS level in rotenone-treated cells” value is reported as “significantly reduced the ROS level”. Also, the cytotoxicity entry in the series with HeLa is listed as “weak cytotoxicity”; in series [13] it was “did not show cytotoxicity”. In [14], the antimicrobial activity result is recorded as “did not show”.

Broadly, the IC50 is the concentration that gives 50% inhibition. Higher therefore signals lower potency. In general, EC50 refers to the midpoint of the concentration-response curve.
